Laboratory results published in paper PMC3780409 (Methods in molecular biology (Clifton, N.J.), 2011).
“Also recorded” adds a separate entry of the source. Read-outs that look alike come from different tables or passages of the source.

Tests used:
[1] = mouse, in vivo
[2] = system: PAR4; conditions: cited from earlier work
[3] = system: PAR1; conditions: cited from earlier work; for Outcome: sepsis, SIRS, DIC, mice
[4] = system: CXCR1/2; conditions: sepsis, SIRS, DIC, septic mice; cited from earlier work
[5] = system: PAR1; conditions: rat aortic rings, vascular tissue preparations; cited from earlier work
[6] = system: PAR4; conditions: cited from earlier work; remark: listed apart in the source
[7] = system: PAR1; conditions: selectivity for PAR4; cited from earlier work
[8] = system: PAR4; conditions: thrombin-preactivated human platelets; cited from earlier work
[9] = system: PAR4; conditions: guinea pigs, cited from earlier work
[10] = system: Akt; conditions: established tumors treated for 5 days; cited from earlier work
[11] = system: PAR1; conditions: guinea pig platelets; cited from earlier work
[12] = system: PAR1; conditions: guinea pigs, intravenous administration; cited from earlier work
[13] = system: SKOV3; conditions: SKOV3 (i.p.), 10 mg/kg (s.c. 5 days per week), single agent; cited from earlier work
[14] = system: PAR1; conditions: cited from earlier work
[15] = system: PAR1-MCF7/N55; conditions: cited from earlier work
[16] = system: MDA-MB-231; conditions: MDA-MB-231 (s.q.), 10 mg/kg (i.p. q2d) combination with docetaxel (10 mg/kg i.p. once weekly), p < 0.01; cited from earlier work
[17] = system: PAR1-expressing breast cancer cells; conditions: through Akt; cited from earlier work
[18] = system: GFP/MDA-MB-231; conditions: GFP/MDA-MB-231 (i.v.), 10 mg/kg (s.c. 5 days per week), single agent, p < 0.001; cited from earlier work
[19] = system: PAR1; conditions: guinea pigs, cited from earlier work
[20] = system: OVCAR4; conditions: cited from earlier work
[21] = system: PAR4; conditions: cited from earlier work; remark: listed apart in the source
[22] = system: thromboxane, ADP, collagen, or GPIb/IX/V receptors; conditions: cited from earlier work
[23] = system: PAR4; conditions: wire injury to the carotid artery of mice, fluorescent platelets; cited from earlier work
[24] = system: PAR4; conditions: sepsis, SIRS, DIC, mice; cited from earlier work
[25] = system: PAR4; conditions: PAR4 agonist in mouse knee joint; cited from earlier work
[26] = system: PAR1; conditions: at higher concentrations; cited from earlier work
[27] = system: PAR4; conditions: cited from earlier work; remark: listed apart in the source
[28] = system: human neutrophils; conditions: cited from earlier work
[29] = system: PAR4; conditions: mice, induced by AYPGKF plus epinephrine; cited from earlier work
[30] = system: PAR4; conditions: cited from earlier work; remark: listed apart in the source
[31] = system: PAR4; conditions: Inflammation/paw edema, carrageenan, mice; cited from earlier work
[32] = system: breast MCF-7 cells and melanoma SK-Mel2 cells; conditions: inhibition of growth, cell line not specified (MCF-7 and SK-Mel2 tested); cited from earlier work

## pal-CGRRYGHALR [[^14C]-P4pal-10C]
[1]
  increase of radioactivity in urine: fivefold
  radioactivity in urine: detected
[1]; iv, 1.4 mg/kg
  tissues in which radioactivity appeared: liver, kidney, lungs, and spleen, and lesser amounts to other tissues
[1]; iv, 14 mg/kg
  tissues in which radioactivity appeared: kidney, lungs, liver, and spleen with lesser radioactivity appearing in the heart, blood, muscle, and fat, but not the brain
[1]; sc, 1 mg/kg
  tissues in which radioactivity appeared: liver, kidney, lungs, and blood
[1]; sc, 10 mg/kg
  tissues in which radioactivity appeared: fairly even distribution of radioactivity to the kidney, liver, spleen, blood, heart, and lungs, with lesser amounts to muscle and fat, but not to brain

## N-pal-RLAHGYRRGS-NH2 [Rev-P4pal-10, reference compound]
[2]; reverse-sequence control
  Target (activity class): Inactive

## N-pal-AVANRSKKSRALF-NH2 [Pepducin P1pal-13]
[3]
  Outcome: Temporally modulated survival, vascular leakage, and DIC
[3]; septic mice, by inhibiting leakage of endothelial cell tight junctions
  survival and DIC, treatment at late time points (agonist): improved survival and prevented DIC

## N-LCA-YSRVGRSVTD-NH2 [x1/2LCA-i1]
[4]
  Outcome: CXCR1/2 pepducins reduced organ damage, inhibited neutrophil migration, improved survival, and inhibited DIC

## N-pal-RTLFKAHMGQKHRAMR-NH2 [x1/2pal-i3]
[4]
  Outcome: CXCR1/2 pepducins reduced organ damage, inhibited neutrophil migration, improved survival, and inhibited DIC

## N-pal-RCLSSSAVANRSKKSRALF-NH2 [Pepducin P1pal-19]
[5]
  Outcome (agonist activity: Ca2+ signal, relaxation, prostaglandin E2 release): promote Ca^2+ signals, prostaglandin E2 release, and persistent relaxation of rat aortic rings in a concentration-dependent manner; also recorded: Promotes Ca^2+ signal, relaxation of rat aortic rings, and prostaglandin E2 release

## N-pal-ATGAPRLPST-NH2 [Pepducin P4pal-i1]
[6]
  human platelet aggregation, combined with bivalirudin: significant inhibition of human platelet aggregation
[7]
  effect on PAR1-induced platelet aggregation: without affecting
[8]
  Outcome (epinephrine-induced Ca2+ flux and aggregation): inhibited; also recorded: Inhibition of epinephrine-induced Ca^2+ flux
[9]; carotid injury model, single agent
  decrease of arterial occlusion: approximately 50%
[9]; when combined with bivalirudin or P1pal-7
  Outcome (arterial occlusion): Inhibition of arterial occlusion in guinea pigs, when combined with bivalirudin or P1pal-7
[9]
  arterial thrombosis, combined with bivalirudin: suppression of arterial thrombosis in guinea pigs to a much higher degree than bivalirudin alone

## C15H31CONH-KKSRALF-NH2 [Pepducin P1pal-7]
[10]
  phosphorylation of Akt: significantly inhibited
[11]
  Outcome (platelet aggregation): Inhibition of guinea pigs platelet aggregation
[12]
  collagen-induced thrombocytopenia: protected from collagen-induced thrombocytopenia
[13]
  Efficacy: ascites formation: Ascites formation, complete inhibition of ascites
[14]; human platelets, collagen
  p38 MAPK activation: blocked p38 MAPK activation
[14]; human platelets
  collagen-induced platelet aggregation: inhibition of collagen-induced platelet aggregation
[14]; human whole blood, arterial flow conditions
  propagation of platelet–platelet thrombi: significantly reduced
[15]; PAR1-MCF7/N55 (s.q.), 10 mg/kg (s.c. q2d), single agent, p < 0.01
  Efficacy: tumor burden, reduction in tumor growth: 62%
[15]
  angiogenesis of breast cancers: almost completely blocked
[16]
  Efficacy: tumor burden, reduction in tumor growth: 95%
[17]
  viability of PAR1-expressing breast cancer cells: inhibited the viability
[18]
  Efficacy: reduction in metastasis to lung: 88%
[19]; 0.3 mg/kg i.v., carotid injury model
  prolongation of the occlusion time: approximately 50%
[19]; intravenous, carotid artery FeCl3 injury model
  Outcome (arterial occlusion time): prolonged the mean occlusion time; also recorded: Prolonged collagen-induced arterial occlusion time in guinea pigs
[20]; OVCAR4 (i.p.), 3.6 mg/kg (i.p. q2d) combination with docetaxel (10 mg/kg i.p. once weekly), p < 0.005
  Efficacy: diaphragm metastasis / peritoneal dissemination: Significant reduction in diaphragm metastasis (p < 0.005)
[20]; OVCAR4 (i.p.), 10 mg/kg (i.p. q2d), single agent
  Efficacy: inhibition in ascites formation: 60%
[20]; cell line not given
  ascites production in peritoneal ovarian cancer: significantly inhibited
[20]
  angiogenesis of peritoneal ovarian cancers: almost completely blocked

## N-pal-SGRRYGHALR-NH2 [Pepducin P4pal-10]
[21]
  Outcome (thrombin generation): delayed the generation of thrombin
[2]
  AYPGKF (PAR4 agonist)-induced aggregation: completely blocked
  human platelet aggregation to PAR4 agonists: inhibited
[22]
  effect on ADP, thromboxane, and GPIb/IX/V receptors: did not affect
[23]
  Outcome (platelet accumulation): significant delay in accumulation; also recorded: Delayed platelet accumulation
[24]
  Outcome: protected against systemic inflammation and DIC; also recorded: Reduced organ damage and inflammatory mediators, inhibited neutrophil migration
[25]
  Outcome (joint inflammation): block the proinflammatory and pronociceptive effects of a PAR4 agonist in the mouse knee joint and alleviate acute joint inflammation; also recorded: Reduced agonist induced joint vascular conductance and edema
[26]
  block of PAR1 activation: partially block
[27]; ischemia/reperfusion in rats
  Outcome (infarct size): Reduced infarct size in ischemia/reperfusion in rats
[27]; rats, intravenous bolus of 10 μg/kg, I/R injury model
  reduction of myocardium infarct size: approximately 20%
[28]
  migration of human neutrophils to IP-10, SDF-1α, and S1P: no effect
  migration of human neutrophils to thrombin: completely blocked
[29]
  systemic thrombus formation: protected against systemic thrombus formation
[30]; mice infused with pepducin
  Outcome (tail bleeding time): prolonged tail-bleeding times and unstable thrombi formation; also recorded: Prolonged tail bleeding time in mice
[30]; mice, intravenous injection, 4 h point
  extension of bleeding time: approximately twofold
[30]; mice, intravenous injection, 24 h time point
  bleeding time: returned to baseline
[30]; mice, intravenous injection, after 5 min, maintained for 1 h
  increase in bleeding time: threefold to fivefold
[30]; mice, subcutaneous injection of 3 mg/kg, 4 h after injection
  prolongation of bleeding time: sixfold
[30]; mice, subcutaneous injection of 3 mg/kg
  PD half-life: approximately 14 h
[31]
  Outcome: Reduced edema and granulocyte recruitment induced by carrageenan

## N-pal-RSLSSSAVANRS-NH2 [Pepducin P1pal-12S]
[3]
  Outcome: Temporally modulated survival, vascular leakage, and DIC
[3]; septic mice
  survival and DIC, treatment at early time points: improved survival and prevented DIC
  survival and DIC, treatment at late time points (antagonist): but not late time points

## Pal-LTYAWHTSFK [SMO-i2-12]
[32]
  IC50: 60 nM
